# Results published in US9180160B2, “Complement inhibitors for treatment of injury from intracerebral hemorrhage” (The Trustees of the University of Pennsylvania, priority 2008, dated 2015).
# Tests used:
# Assay type in all cases: in vivo
# [1] = test system: C57BL/6J mice subjected to ICH; test: Morris water-maze test (MWM) after ICH; details: then twice daily, 72 hours after ICH, mean±SEM
# Procedure: (§1) Animal Preparation and Intracerebral Infusion. Adult male C57BL/6J mice weighing 23-30 g were used. Mice were randomized to receive intraperitoneal injection of either C3aRA (1 mg/kg) (SB290157, Calbiochem, Darmstadt, Germany) diluted in PBS and DMSO (1.16% v/v), or an equal volume of vehicle (PBS and DMSO, 1.16% DMSO v/v) either 45 minutes prior to ICH induction or 6 and 12 hours after induction of ICH, followed in both cohorts by twice daily doses for 72 hours. […] Sham animals were given PBS and DMSO (1.16% v/v) in the same manner.
# (§2) Mice were anesthetized with a single intraperitoneal dose of ketamine (90 mg/kg) and xylazine (5 mg/kg). […]
# (§3) Neurofunction and behavioral testing. Sensorimotor function was evaluated by means of the 28-point neurological function score, corner test and forelimb placing tests, which were performed pre-operatively and at 6, 24, 48 and 72 hour post-injury. Navigational memory was evaluated with the means of a Morris water-maze (MWM) test pre-operatively and at 72 hours post ICH. […]
# Morris water-maze test (MWM). […] The time, in seconds, spent by each animal to find the platform was recorded. […] The time spent in the quadrant where the platform had been situated before was recorded. […]
# [2] = test system: C57BL/6J mice subjected to ICH; test: Forelimb placing test after ICH; details: 1 mg/kg i.p. 45 minutes prior to ICH, then twice daily; 72 hours after ICH
# Procedure: as §1, §2, §3
# Forelimb placing test. […] Each animal was tested 10 times for each forelimb, and the percentage of trials in which the mouse placed the appropriate forelimb on the edge of the table after vibrissae stimulation was determined.
# [3] = test system: model of focal ischemic stroke; test: Dose-response trial in a model of focal ischemic stroke; details: comparing 0.1, 0.5, 1 and 5 mg/kg
smiles,measurement,setting,value
NC(N)=NCCC[C@H](NC(=O)COCC(c1ccccc1)c1ccccc1)C(=O)O [C3aRA],MWM time spent in the target quadrant,[1]; 1 mg/kg i.p. 45 minutes prior to ICH,19.62 ± 1.08 s
same,MWM time spent in the target quadrant,[1]; 1 mg/kg i.p. first at 6 h and 12 h after ICH,18.9 ± 1.3 s
same,forelimb placing capacity in the impaired limb,[2],no significant deficits compared with sham animals
same,most effective dose,[3],1 mg/kg
